Measured values taken from US6407083B1, “Uses of novel organoselenium compounds with pro-oxidant activity” (Oxis International, Inc., priority 1996, dated 2002).
One block for each compound: values may come before it.

Legend:
[1] = system: MCF-7 cells from a breast cancer of human origin; experiment: Cytotoxicity on MCF-7 cells (MTT viability test); assay type: cell-based; settings: for mortality at 0.195 µM: MCF7, 0.195 μM; for mortality at 0.391 µM: MCF7, 0.391 μM; for mortality at 0.781 µM: MCF7, 0.781 μM; for mortality at 1.562 µM: MCF7, 1.562 μM; for mortality at 3.125 µM: MCF7, 3.125 μM; for mortality at 6.25 µM: MCF7, 6.25 μM; for mortality at 12.5 µM: MCF7, 12.5 μM; for mortality at 25 µM: MCF7, 25 μM; for mortality at 50 µM: MCF7, 50 μM
Procedure: The MCF-7 cells from a breast cancer of human origin are cultivated, in an atmosphere of a gaseous mixture of 95% air and 5% CO2, saturated with water, two days before the test, in order to be in a growth phase during the toxicity test. The cells are trypsinized and are collected in a RPMI 1640 medium containing 10% FCS, 10 mM HEPES, 1 mM pyruvate, 4 mM L-glutamine, 100 U/ml penicillin, 100 μg/ml streptomycin, in order to be centrifuged at 1,500 rpm for 10 minutes. The cell pellet is resuspended in the same medium in order to obtain a cell density of 30,000 cells/cm^2.
The compounds of general structure IA described in the present invention are solubilised at 10 mM in absolute ethanol and diluted in RPMI-10% FCS culture medium, the final volume of ethanol in the reaction medium is 0.5% (v/v). The molecules are studied at the following concentrations: 50; 25; 12.5; 6.25; 3.125; 1.562; 0.781; 0.391 and 0.195 μM. Two controls are carried out, in the presence and in the absence of ethanol respectively, using 100 μl of cell suspension of 30,000 cells/cm^2 incubated with 100 μl of RPMI-10% FCS medium and ±0.5% of ethanol (v/v).
Before starting the study, the cells are rinsed with PBS buffer which contains neither calcium nor magnesium. The cells are then incubated with 200 μl of compound under test, or with the medium containing or not 0.5% of ethanol (controls) for either 24 or 48 hours under an atmosphere of a gaseous mixture of 95% air and 5% CO2, saturated with water, at 37° C., then submitted to the viability test with MTT according to the following protocol.
To 200 μl of culture medium are added 50 μl of MTT at 5 mg/ml in PBS buffer. After 4 hours of incubation at 37° C., the plate is centrifuged for 10 minutes at 3,000 rpm. The supernatant is removed and the cell pellet is resuspended in 100 μl of DMSO. This is left to incubate for 10 minutes with stirring at 37° C. The coloration developed is measured at 550 nm against DMSO. The optical density OD=f(living cells) can then be plotted as a function of time.

[2] = system: NADPH in the presence of glutathione (GSH) and glutathione disulfide reductase; experiment: Glutathione oxidase activity (consumption of NADPH in the presence of GSH and glutathione disulfide reductase); assay type: biochemical; settings: pH 7.3, 37° C.
Procedure: To 1.5 ml of 50 mM HEPES buffer, pH 7.3, containing 2.47 mM of reduced glutathione (GSH), 0.32 mM of nicotinamide adenine dinucleotide phosphate (NADPH), and 1.23 units/ml of glutathione disulfide reductase (GR), at 37° C., are added, in the following order:
320 μl of 50 mM HEPES buffer, pH 7.3, containing 0.1 mM of DTPA, pre-equilibrated at 37° C.
30 μl of a 5 mM ethanolic mother-solution of the compound under test or 30 μl of absolute ethanol (blank). Each compound is tested at a final concentration of 81 μM.
The final reaction volume is 1850 μl.
The glutathione oxidase activity is assayed at 37° C. by measuring the reduction in absorbance at 340 nm over 5 minutes. The said initial enzymatic rate or activity is proportional to the slope of the plot of absorbance against time.
The catalytic activity for oxygen reduction in the compounds under test corresponds to the rate of consumption of NADPH.
Furthermore, the effects of superoxide dismutase (SOD), catalase, iodoacetamide (IAA) and Se-GPx on the glutathione oxidase activity of the tested compounds have been studied.
the necessary and sufficient quantity, variable according to the case, of 50 mM HEPES, pH 7.3, containing 0.1 mM of DTPA, pre-equilibrated at 37° C.; the final reaction volume being 1850 μl.
either 100 μl of a solution of 1850 units/ml of SOD in water of ultrapure quality,
or 100 μl of a solution of 1850 units/ml of catalase in water of ultrapure quality and 100 μl of a solution of 1850 units/ml of SOD in water of ultrapure quality,
or 150 μl of a 6.2 mM solution of iodoacetamide in 50 mM HEPES buffer, pH 7.3, containing 0.1 mM DTPA,
or 100 μl of a solution of 10 units/ml of glutathione peroxidase Se-GPx in 50 mM HEPES buffer, pH 7.3, containing 0.1 mM of DTPA,
or 100 μl of a solution of 1850 units/ml of SOD in water of ultrapure quality, and 100 μl of a solution of 10 units/ml of glutathione peroxidase Se-GPx in 50 mM HEPES buffer, pH 7.3, containing 0.1 mM of DTPA.
30 μl of a 5 mM ethanolic mother-solution of the compound under test.
The glutathione oxidase activity is assayed at 37° C. by monitoring the decrease in the absorbance at 340 nm over 15 minutes. The said initial enzymatic rate or activity is proportional to the slope of the plot of absorbance against time.
The consumption of NADPH has been calculated from the slopes of the curves obtained (OD/minute): [formula]
Vt=total volume of the reaction =1850 μl
ε=molar extinction coefficient of NADPH=[…]. M^−1. cm^−1
They are expressed in nmoles of NADPH oxidized per minute.

SMILES: CC1(C)c2cccc([N+](=O)[O-])c2[Se]N1CCO [Bxt-57001, N-(2-hydroxyethyl)-3,3-dimethyl-7-nitrobenzisoselenazoline]
- mortality at 0.195 µM ([1]; 24 h): 0%
- mortality at 0.195 µM ([1]; 48 h): 0%
- mortality at 0.391 µM ([1]; 24 h): 0%
- mortality at 0.391 µM ([1]; 48 h): 0%
- mortality at 0.781 µM ([1]; 24 h): 16.9%
- mortality at 0.781 µM ([1]; 48 h): 0%
- mortality at 1.562 µM ([1]; 24 h): 29.4%
- mortality at 1.562 µM ([1]; 48 h): 20%
- mortality at 3.125 µM ([1]; 24 h): 23.9%
- mortality at 3.125 µM ([1]; 48 h): 23.3%
- mortality at 6.25 µM ([1]; 24 h): 55%
- mortality at 6.25 µM ([1]; 48 h): 41.2%
- mortality at 12.5 µM ([1]; 24 h): 75.3%
- mortality at 12.5 µM ([1]; 48 h): 58.5%
- mortality at 25 µM ([1]; 24 h): 99.1%
- mortality at 25 µM ([1]; 48 h): 99.8%
- mortality at 50 µM ([1]; 24 h): 99.8%
- mortality at 50 µM ([1]; 48 h): 100%

SMILES: CC1(C)N[Se]c2c([N+](=O)[O-])cccc21 [Bxt-51062, 3,3-Dimethyl-7-nitrobenzisoselenazoline]
- GSH oxidase activity, nmole NADPH oxidized/min ([2]; compound + GSH + GR-NADPH + SOD and CAT): 79.29 nmole NADPH oxidized/min
- GSH oxidase activity, nmole NADPH oxidized/min ([2]; compound + GSH + GR-NADPH + SOD): 78.78 nmole NADPH oxidized/min
- GSH oxidase activity, nmole NADPH oxidized/min ([2]; compound + GSH + GR-NADPH + Se-GPx and SOD): 78.45 nmole NADPH oxidized/min
- GSH oxidase activity, nmole NADPH oxidized/min ([2]; compound + GSH + GR-NADPH + Se-GPx): 80.61 nmole NADPH oxidized/min
- GSH oxidase activity, nmole NADPH oxidized/min ([2]; compound + GSH + GR-NADPH ± IAA (iodoacetamide)): 76.25 nmole NADPH oxidized/min
- GSH oxidase activity, nmole NADPH oxidized/min ([2]; compound + GSH + GR-NADPH, no further effector): 77.17 nmole NADPH oxidized/min
- mortality at 0.195 µM ([1]; 24 h): 0%
- mortality at 0.195 µM ([1]; 48 h): 2.22%
- mortality at 0.391 µM ([1]; 24 h): 0%
- mortality at 0.391 µM ([1]; 48 h): 0%
- mortality at 0.781 µM ([1]; 24 h): 23.6%
- mortality at 0.781 µM ([1]; 48 h): 32.5%
- mortality at 1.562 µM ([1]; 24 h): 42.7%
- mortality at 1.562 µM ([1]; 48 h): 58.5%
- mortality at 3.125 µM ([1]; 24 h): 70.1%
- mortality at 3.125 µM ([1]; 48 h): 83%
- mortality at 6.25 µM ([1]; 24 h): 100%
- mortality at 6.25 µM ([1]; 48 h): 100%
- mortality at 12.5 µM ([1]; 24 h): 100%
- mortality at 12.5 µM ([1]; 48 h): 100%
- mortality at 25 µM ([1]; 24 h): 100%
- mortality at 25 µM ([1]; 48 h): 100%
- mortality at 50 µM ([1]; 24 h): 100%
- mortality at 50 µM ([1]; 48 h): 100%

SMILES: CC/C(=C(\c1ccccc1)c1ccc(OCCN2[Se]c3c([N+](=O)[O-])cccc3C2(C)C)cc1)c1ccccc1 [Bxt-57007, N-{2-[4-(1,2-diphenylbut-1-en-1-yl)phenoxy]ethyl}3,3-dimethyl-7-nitrobenzisoselenazoline]
- mortality at 0.195 µM ([1]; 24 h): 0%
- mortality at 0.195 µM ([1]; 48 h): 1.07%
- mortality at 0.391 µM ([1]; 24 h): 1.02%
- mortality at 0.391 µM ([1]; 48 h): 8.42%
- mortality at 0.781 µM ([1]; 24 h): 8.39%
- mortality at 0.781 µM ([1]; 48 h): 14.2%
- mortality at 1.562 µM ([1]; 24 h): 12.9%
- mortality at 1.562 µM ([1]; 48 h): 25.1%
- mortality at 3.125 µM ([1]; 24 h): 13.3%
- mortality at 3.125 µM ([1]; 48 h): 18.7%
- mortality at 6.25 µM ([1]; 24 h): 19.4%
- mortality at 6.25 µM ([1]; 48 h): 33.2%
- mortality at 12.5 µM ([1]; 24 h): 28.6%
- mortality at 12.5 µM ([1]; 48 h): 44.6%
- mortality at 25 µM ([1]; 24 h): 36.6%
- mortality at 25 µM ([1]; 48 h): 46.8%
- mortality at 50 µM ([1]; 24 h): 40.8%
- mortality at 50 µM ([1]; 48 h): 46.3%

SMILES: CC(=O)N1[Se]c2c([N+](=O)[O-])cccc2C1(C)C [Bxt-57004, N-acetyl-3,3-dimethyl-7-nitrobenzisoselenazoline]
- mortality at 0.195 µM ([1]; 24 h): 0%
- mortality at 0.195 µM ([1]; 48 h): 17.4%
- mortality at 0.391 µM ([1]; 24 h): 3.19%
- mortality at 0.391 µM ([1]; 48 h): 12.8%
- mortality at 0.781 µM ([1]; 24 h): 34.9%
- mortality at 0.781 µM ([1]; 48 h): 38.6%
- mortality at 1.562 µM ([1]; 24 h): 59.4%
- mortality at 1.562 µM ([1]; 48 h): 60.5%
- mortality at 3.125 µM ([1]; 24 h): 71.2%
- mortality at 3.125 µM ([1]; 48 h): 69.1%
- mortality at 6.25 µM ([1]; 24 h): 73.3%
- mortality at 6.25 µM ([1]; 48 h): 76.4%
- mortality at 12.5 µM ([1]; 24 h): 79.8%
- mortality at 12.5 µM ([1]; 48 h): 75.8%
- mortality at 25 µM ([1]; 24 h): 92.8%
- mortality at 25 µM ([1]; 48 h): 88.4%
- mortality at 50 µM ([1]; 24 h): 100%
- mortality at 50 µM ([1]; 48 h): 100%

Other lines, results leading:

- melting point: 127 °C
SMILES: CC(=O)N1CC(C)(C)c2cccc([N+](=O)[O-])c2[Se]1

- melting point: 128 °C
SMILES: CC12CCC3c4ccc(O)cc4CC(CCCCCCCC(=O)N4[Se]c5c([N+](=O)[O-])cccc5C4(C)C)C3C1CCC2O (stereo not shown)

- melting point: 108 °C
SMILES: CC1(C)CN[Se]c2c([N+](=O)[O-])cccc21

- melting point: 95 °C
SMILES: CC12CCC3c4ccc(O)cc4CC(CCCCCCCCN4[Se]c5c([N+](=O)[O-])cccc5C4(C)C)C3C1CCC2O (stereo not shown)
